Assay results: ChEMBL document CHEMBL1268858, “Cytotoxic Hexacyclic Triterpene Acids from Euscaphis japonica” (J Nat Prod, 2010)

What was measured:
[1] = Cytotoxicity against human fibroblast cells at 10 uM after 48 hrs; type: cell-based
MCF7 [2] = test: Cytotoxicity against human MCF7 cells at 10 uM after 48 hrs; type: functional
CCRF-CEM [3] = test: Cytotoxicity against human CEM cells at 10 uM after 48 hrs; type: functional
NCI-H460 [4] = test: Cytotoxicity against human NCI-H460 cells at 10 uM after 48 hrs; type: functional
HT-29 [5] = test: Cytotoxicity against human HT-29 cells at 10 uM after 48 hrs; type: functional
HT-29 [6] = test: Cytotoxicity against human HT-29 cells after 48 hrs; type: functional, cell-based; details: HT-29, 48 h
MCF7 [7] = test: Cytotoxicity against human MCF7 cells after 48 hrs; type: functional, cell-based; details: MCF7, 48 h
NCI-H460 [8] = test: Cytotoxicity against human NCI-H460 cells after 48 hrs; type: functional, cell-based; details: NCI-H460, 48 h
CCRF-CEM [9] = test: Cytotoxicity against human CEM cells after 48 hrs; type: functional, cell-based

SMILES: C[C@@H]1CC[C@]2(C(=O)O)CC[C@]3(C)C(=CC[C@@H]4[C@@]5(C)C[C@H](O)[C@H](O)C(C)(C)[C@@H]5CC[C@]43C)[C@@H]2[C@]1(C)O
- Activity [1]: 107%
- Activity (MCF7 [2]): 70%
- Activity (CCRF-CEM [3]): 73%
- Activity (NCI-H460 [4]): 78%
- Activity (HT-29 [5]): 74%

SMILES: C[C@@H]1CC[C@]2(C(=O)O)CC[C@]3(C)C(=CC[C@@H]4[C@@]5(C)CC[C@H](O)[C@@](C)(C=O)[C@@H]5CC[C@]43C)[C@@H]2[C@]1(C)O
- Activity [1]: 99%
- Activity (MCF7 [2]): 93%
- Activity (CCRF-CEM [3]): 88%
- Activity (NCI-H460 [4]): 103%
- Activity (HT-29 [5]): 91%

SMILES: C[C@H]1[C@H](C)CC[C@]2(C(=O)O)CC[C@]3(C)C(=CC[C@@H]4[C@@]5(C)C[C@@H](O)[C@H](O)C(C)(C)[C@@H]5CC[C@]43C)[C@H]12 [COROSOLIC ACID]
- Activity [1]: 109%
- Activity (MCF7 [2]): 75%
- IC50 (HT-29 [6]): > 10 µM
- IC50 (MCF7 [7]): > 10 µM
- Activity (CCRF-CEM [3]): 33%
- Activity (NCI-H460 [4]): 89%
- Activity (HT-29 [5]): 68%
- IC50 (NCI-H460 [8]): > 10 µM
- IC50 (CCRF-CEM [9]): 3.27 µM

SMILES: COc1cccc2c1C(=O)c1c(O)c3c(c(O)c1C2=O)C[C@@](O)(C(=O)CO)C[C@@H]3O[C@H]1C[C@H](N)[C@H](O)[C@H](C)O1 [DOXORUBICIN]
- IC50 (HT-29 [6]): 6.4 µM
- IC50 (NCI-H460 [8]): 6.06 µM
- IC50 (CCRF-CEM [9]): 3.14 µM

SMILES: C[C@@H]1CC[C@]2(C(=O)O)CC[C@]34C[C@]3(C=C[C@@H]3[C@@]5(C)CC[C@H](O)C(C)(C)[C@@H]5CC[C@]34C)[C@@H]2[C@]1(C)O [EUSCAPHIC ACID A]
- Activity [1]: 100%
- Activity (MCF7 [2]): 85%
- Activity (CCRF-CEM [3]): 83%
- Activity (NCI-H460 [4]): 62%
- Activity (HT-29 [5]): 87%

SMILES: C[C@@H]1CC[C@]2(C(=O)O)CC[C@]34C[C@]3(C=C[C@@H]3[C@@]5(C)CC[C@H](O)[C@@](C)(CO)[C@@H]5CC[C@]34C)[C@@H]2[C@]1(C)O [EUSCAPHIC ACID B]
- Activity [1]: 109%
- Activity (MCF7 [2]): 84%
- Activity (CCRF-CEM [3]): 80%
- Activity (NCI-H460 [4]): 99%
- Activity (HT-29 [5]): 93%

SMILES: C[C@@H]1CC[C@]2(C(=O)O)CC[C@]34C[C@]3(C=C[C@@H]3[C@@]5(C)C[C@@H](O)[C@@H](O)C(C)(C)[C@@H]5CC[C@]34C)[C@@H]2[C@]1(C)O [EUSCAPHIC ACID C]
- Activity [1]: 119%
- Activity (MCF7 [2]): 10%
- IC50 (HT-29 [6]): 14.3 µM
- IC50 (MCF7 [7]): 15.7 µM
- Activity (CCRF-CEM [3]): 19%
- Activity (NCI-H460 [4]): 6%
- Activity (HT-29 [5]): 1%
- IC50 (NCI-H460 [8]): 2.54 µM
- IC50 (CCRF-CEM [9]): 65.3 µM

SMILES: C[C@@H]1CC[C@]2(C(=O)O)CC[C@]34C[C@]3(C=C[C@@H]3[C@@]5(C)C[C@@H](O)[C@H](O)C(C)(C)[C@@H]5CC[C@]34C)[C@@H]2[C@]1(C)O [EUSCAPHIC ACID D]
- Activity [1]: 111%
- Activity (MCF7 [2]): 41%
- IC50 (HT-29 [6]): 34.8 µM
- IC50 (MCF7 [7]): 3.61 µM
- Activity (CCRF-CEM [3]): 55%
- Activity (NCI-H460 [4]): 24%
- Activity (HT-29 [5]): 13%
- IC50 (NCI-H460 [8]): 13.3 µM
- IC50 (CCRF-CEM [9]): 8.99 µM

SMILES: C[C@H]1[C@H](C)CC[C@]2(C(=O)O)CC[C@]34C[C@]3(C=C[C@@H]3[C@@]5(C)C[C@@H](O)[C@H](O)C(C)(C)[C@@H]5CC[C@]34C)[C@H]12 [EUSCAPHIC ACID E]
- Activity [1]: 110%
- Activity (MCF7 [2]): 90%
- Activity (CCRF-CEM [3]): 87%
- Activity (NCI-H460 [4]): 91%
- Activity (HT-29 [5]): 86%

SMILES: C=C1[C@H](C)CC[C@]2(C(=O)O)CC[C@]34C[C@]3(C=C[C@@H]3[C@@]5(C)C[C@@H](O)[C@H](O)C(C)(C)[C@@H]5CC[C@]34C)[C@H]12 [EUSCAPHIC ACID F]
- Activity [1]: 115%
- Activity (MCF7 [2]): 76%
- Activity (CCRF-CEM [3]): 86%
- Activity (NCI-H460 [4]): 81%
- Activity (HT-29 [5]): 87%

SMILES: C[C@@H]1CC[C@]2(C(=O)O)CC[C@]3(C)C(=CC[C@@H]4[C@@]5(C)C[C@@H](O)[C@@H](O)C(C)(C)[C@@H]5CC[C@]43C)[C@@H]2[C@]1(C)O [EUSCAPHIC ACID]
- Activity [1]: 95%
- Activity (MCF7 [2]): 85%
- Activity (CCRF-CEM [3]): 89%
- Activity (NCI-H460 [4]): 104%
- Activity (HT-29 [5]): 85%

SMILES: C[C@@H]1CC[C@]2(C(=O)O)CC[C@]3(C)C(=CC[C@@H]4[C@@]5(C)CC[C@H](O)C(C)(C)[C@@H]5CC[C@]43C)[C@@H]2[C@]1(C)O [POMOLIC ACID]
- Activity [1]: 93%
- Activity (MCF7 [2]): 79%
- Activity (CCRF-CEM [3]): 92%
- Activity (NCI-H460 [4]): 82%
- Activity (HT-29 [5]): 91%

SMILES: C[C@@H]1CC[C@]2(C(=O)O)CC[C@]3(C)C(=CC[C@@H]4[C@@]5(C)CC[C@H](O)[C@@](C)(CO)[C@@H]5CC[C@]43C)[C@@H]2[C@]1(C)O [ROTUNDIC ACID]
- Activity [1]: 92%
- Activity (MCF7 [2]): 78%
- Activity (CCRF-CEM [3]): 106%
- Activity (NCI-H460 [4]): 85%
- Activity (HT-29 [5]): 101%

SMILES: C[C@@H]1CC[C@]2(C(=O)O)CC[C@]3(C)C(=CC[C@@H]4[C@@]5(C)CC[C@H](O)[C@](C)(CO)[C@@H]5CC[C@]43C)[C@@H]2[C@]1(C)O [ROTUNGENIC ACID]
- Activity [1]: 99%
- Activity (MCF7 [2]): 98%
- Activity (CCRF-CEM [3]): 97%
- Activity (NCI-H460 [4]): 106%
- Activity (HT-29 [5]): 91%

SMILES: C[C@@H]1CC[C@]2(C(=O)O)CC[C@]3(C)C(=CC[C@@H]4[C@@]5(C)C[C@@H](O)[C@H](O)C(C)(C)[C@@H]5CC[C@]43C)[C@@H]2[C@]1(C)O [TOMENTIC ACID]
- Activity [1]: 114%
- Activity (MCF7 [2]): 85%
- Activity (CCRF-CEM [3]): 93%
- Activity (NCI-H460 [4]): 88%
- Activity (HT-29 [5]): 86%
